{"source": "patent US7256286B2", "about": "“Bryostatin analogues, synthetic methods and uses” (The Board of Trustees of the Leland Stanford Junior …, priority 1999, dated 2007)", "key": {"P388 cell line": {"tested_on": "P388 cell line", "assay": "P388 murine lymphocytic leukemia cell assay", "type": "cell-based", "experimental": "Cells from a P388 cell line (CellGate, Inc., Sunnyvale, Calif.) are grown in RPMI 1640 cell medium containing fetal calf serum (10%), L-glutamine, penicillin, streptomycin and are split twice weekly. All compounds are first diluted with DMSO. Later serial dilutions are done with a phosphate buffer solution (HYQ DPBS modified phosphate buffered saline). All dilutions are done in glass vials and the final DMSO concentration is always below 0.5% by volume. Final two-fold dilutions are done in a 96 well plate using cell media so that each well contains 50 μL. All compounds are assayed in quadruplicate over 12 concentrations. Cell concentration is measured using a hemacytometer and the final cell concentration is adjusted to 1×10^4 cells/mL with cell medium. The resulting solution of cells (50 μL) is then added to each well and the plates are incubated for 5 days in a 37° C., 5% CO2, humidified incubator (Sanyo CO2 incubator). MTT solution (3-[4,5-dimethylthiazol-2-yl]-2,5-diphenyltetrazolium bromide, 10 μL) is then added to each well and the plates are re-incubated under identical conditions for 2 h. To each well is then added acidified isopropanol (150 μL of i-PrOH solution containing 0.05 N HCl) and mixed thoroughly. The plates are then scanned at 595 nm and the absorbances are read (Wallac Victor 1420 Multilabel Counter). The resulting data is then analyzed to determine an ED50 value using the Prism software package (GraphPad)."}, "[1]": {"tested_on": "NCI human cancer cell-lines", "assay": "In vitro inhibition of growth in human cancer cell lines (all cell groups)", "type": "cell-based", "conditions": "on average, all cell groups tested"}, "CCRF-CEM": {"tested_on": "CCRF-CEM", "assay": "NCI human cancer cell line growth inhibition: CCRF-CEM", "type": "cell-based", "conditions": "Leukemia"}, "HL-60(TB)": {"tested_on": "HL-60(TB)", "assay": "cells", "type": "cell-based, human"}, "SR": {"tested_on": "SR", "assay": "NCI human cancer cell line growth inhibition: SR", "type": "cell-based", "conditions": "Leukemia"}, "A549/ATCC": {"tested_on": "A549/ATCC", "assay": "NCI human cancer cell line growth inhibition: A549/ATCC", "type": "cell-based", "conditions": "NSC Lung"}, "EKVX": {"tested_on": "EKVX", "assay": "NCI human cancer cell line growth inhibition: EKVX", "type": "cell-based", "conditions": "NSC Lung"}, "HOP-62": {"tested_on": "HOP-62", "assay": "NCI human cancer cell line growth inhibition: HOP-62", "type": "cell-based", "conditions": "Homo sapiens; HOP-62, NSC Lung"}, "COLO 205": {"tested_on": "COLO 205", "assay": "NCI human cancer cell line growth inhibition: COLO 205", "type": "cell-based", "conditions": "COLO 205, Colon"}, "HCC-2998": {"tested_on": "HCC-2998", "assay": "NCI human cancer cell line growth inhibition: HCC-2998", "type": "cell-based", "conditions": "HCC-2998, Colon"}, "HCT-116": {"tested_on": "HCT-116", "assay": "NCI human cancer cell line growth inhibition: HCT-116", "type": "cell-based", "conditions": "HCT-116, Colon"}, "HCT-15": {"tested_on": "HCT-15", "assay": "NCI human cancer cell line growth inhibition: HCT-15", "type": "cell-based", "conditions": "Homo sapiens; HCT-15, Colon"}, "HT29": {"tested_on": "HT29", "assay": "NCI human cancer cell line growth inhibition: HT29", "type": "cell-based", "conditions": "HT29, Colon"}, "SF-295": {"tested_on": "SF-295", "assay": "NCI human cancer cell line growth inhibition: SF-295", "type": "cell-based", "conditions": "SF-295, CNS"}, "SNB-19": {"tested_on": "SNB-19", "assay": "NCI human cancer cell line growth inhibition: SNB-19", "type": "cell-based", "conditions": "SNB-19, CNS"}, "SNB-75": {"tested_on": "SNB-75", "assay": "NCI human cancer cell line growth inhibition: SNB-75", "type": "cell-based", "conditions": "SNB-75, CNS"}, "PC-3": {"tested_on": "PC-3", "assay": "NCI human cancer cell line growth inhibition: PC-3", "type": "cell-based", "conditions": "PC-3, Prostate"}, "DU-145": {"tested_on": "DU-145", "assay": "NCI human cancer cell line growth inhibition: DU-145", "type": "cell-based", "conditions": "DU-145, Prostate"}, "LOX IMVI": {"tested_on": "LOX IMVI", "assay": "NCI human cancer cell line growth inhibition: LOX IMVI", "type": "cell-based", "conditions": "Melanoma"}, "SK-MEL-5": {"tested_on": "SK-MEL-5", "assay": "NCI human cancer cell line growth inhibition: SK-MEL-5", "type": "cell-based", "conditions": "SK-MEL-5, Melanoma"}, "UACC-62": {"tested_on": "UACC-62", "assay": "NCI human cancer cell line growth inhibition: UACC-62", "type": "cell-based", "conditions": "UACC-62, Melanoma"}, "IGROVI": {"tested_on": "IGROVI", "assay": "NCI human cancer cell line growth inhibition: IGROVI", "type": "cell-based", "conditions": "Ovarian"}, "OVCAR-4": {"tested_on": "OVCAR-4", "assay": "NCI human cancer cell line growth inhibition: OVCAR-4", "type": "cell-based", "conditions": "OVCAR-4, Ovarian"}, "OVCAR-5": {"tested_on": "OVCAR-5", "assay": "NCI human cancer cell line growth inhibition: OVCAR-5", "type": "cell-based", "conditions": "OVCAR-5, Ovarian"}, "OVCAR-8": {"tested_on": "OVCAR-8", "assay": "NCI human cancer cell line growth inhibition: OVCAR-8", "type": "cell-based", "conditions": "OVCAR-8, Ovarian"}, "786-0": {"tested_on": "786-0", "assay": "NCI human cancer cell line growth inhibition: 786-0", "type": "cell-based", "conditions": "786-0, Renal"}, "A498": {"tested_on": "A498", "assay": "NCI human cancer cell line growth inhibition: A498", "type": "cell-based", "conditions": "A498, Renal"}, "SN12C": {"tested_on": "SN12C", "assay": "NCI human cancer cell line growth inhibition: SN12C", "type": "cell-based", "conditions": "Renal"}, "MDA-MB-231/ATCC": {"tested_on": "MDA-MB-231/ATCC", "assay": "NCI human cancer cell line growth inhibition: MDA-MB-231/ATCC", "type": "cell-based", "conditions": "Breast"}, "BT-549": {"tested_on": "BT-549", "assay": "NCI human cancer cell line growth inhibition: BT-549", "type": "cell-based", "conditions": "BT-549, Breast"}, "HS 578T": {"tested_on": "HS 578T", "assay": "NCI human cancer cell line growth inhibition: HS 578T", "type": "cell-based", "conditions": "Breast"}}}
{"molecule": "CCCCCCCC(=O)O[C@H]1/C(=C/C(=O)OC)C[C@H]2C[C@H](CO)OC(=O)C[C@H](O)C[C@@H]3CCCC(CC4CCO[C@H](/C=C/C(C)(C)[C@]1(O)O2)O4)O3", "note": "[Formula IIa (702.1)]", "values": [{"measurement": "activity in P388 assay compared with other analogues", "setting": "P388 cell line; 702.1 vs corresponding C26 methyl-containing analogue, 48, 49 among C20 ester analogues", "result": "significantly higher activity"}, {"measurement": "EC50", "setting": "P388 cell line; Mus musculus, P388, 120 h, 5 days incubation, MTT, read-out: P388 Assay ED50", "result": 0.017, "unit": "µM"}, {"measurement": "potency compared with bryostatin-1", "setting": "[1]", "result": "at least as potent, on average, as bryostatin-1"}, {"measurement": "GI50", "setting": "CCRF-CEM; Homo sapiens", "result": 1.55, "unit": "µM"}, {"measurement": "Difference (GI50 desmethyl vs Bryo-1)", "setting": "CCRF-CEM", "result": "−0.51"}, {"measurement": "Difference (GI50 desmethyl vs Bryo-1)", "setting": "HL-60(TB)", "result": "−0.14"}, {"measurement": "GI50", "setting": "HL-60(TB); Homo sapiens, HL-60, read-out: Growth inhibition (GI50)", "result": 1.45, "unit": "µM"}, {"measurement": "GI50", "setting": "SR; Homo sapiens", "result": 7.94, "unit": "µM"}, {"measurement": "Difference (GI50 desmethyl vs Bryo-1)", "setting": "SR", "result": "−0.10"}, {"measurement": "GI50", "setting": "A549/ATCC; Homo sapiens", "result": 0.24, "unit": "µM"}, {"measurement": "Difference (GI50 desmethyl vs Bryo-1)", "setting": "A549/ATCC", "result": "−1.42"}, {"measurement": "GI50", "setting": "EKVX; Homo sapiens", "result": 2.63, "unit": "µM"}, {"measurement": "Difference (GI50 desmethyl vs Bryo-1)", "setting": "EKVX", "result": "−0.28"}, {"measurement": "GI50", "setting": "HOP-62", "result": 16.2, "unit": "µM"}, {"measurement": "Difference (GI50 desmethyl vs Bryo-1)", "setting": "COLO 205", "result": "−1.68"}, {"measurement": "GI50", "setting": "COLO 205; Homo sapiens", "result": 0.0832, "unit": "µM"}, {"measurement": "Difference (GI50 desmethyl vs Bryo-1)", "setting": "HCC-2998", "result": "−2.24"}, {"measurement": "more active than bryostatin-1 by", "setting": "HCC-2998", "result": "more than 2 orders of magnitude"}, {"measurement": "GI50", "setting": "HCC-2998; Homo sapiens", "result": 0.0288, "unit": "µM"}, {"measurement": "Difference (GI50 desmethyl vs Bryo-1)", "setting": "HCT-116", "result": "−0.02"}, {"measurement": "GI50", "setting": "HCT-116; Homo sapiens", "result": 4.79, "unit": "µM"}, {"measurement": "GI50", "setting": "HCT-15", "result": 17.4, "unit": "µM"}, {"measurement": "Difference (GI50 desmethyl vs Bryo-1)", "setting": "HT29", "result": "−0.25"}, {"measurement": "GI50", "setting": "HT29; Homo sapiens, HT-29", "result": 2.82, "unit": "µM"}, {"measurement": "GI50", "setting": "SF-295; Homo sapiens", "result": 0.891, "unit": "µM"}, {"measurement": "Difference (GI50 desmethyl vs Bryo-1)", "setting": "SF-295", "result": "−0.85"}, {"measurement": "GI50", "setting": "SNB-19; Homo sapiens", "result": 6.31, "unit": "µM"}, {"measurement": "Difference (GI50 desmethyl vs Bryo-1)", "setting": "SNB-19", "result": "−0.20"}, {"measurement": "GI50", "setting": "SNB-75; Homo sapiens", "result": 10.7, "unit": "µM"}, {"measurement": "Difference (GI50 desmethyl vs Bryo-1)", "setting": "SNB-75", "result": 0.53}, {"measurement": "GI50", "setting": "PC-3; Homo sapiens", "result": 2.51, "unit": "µM"}, {"measurement": "Difference (GI50 desmethyl vs Bryo-1)", "setting": "PC-3", "result": "−0.30"}, {"measurement": "Difference (GI50 desmethyl vs Bryo-1)", "setting": "DU-145", "result": "−0.02"}, {"measurement": "GI50", "setting": "DU-145; Homo sapiens", "result": 9.55, "unit": "µM"}, {"measurement": "GI50", "setting": "LOX IMVI; Homo sapiens", "result": 3.39, "unit": "µM"}, {"measurement": "Difference (GI50 desmethyl vs Bryo-1)", "setting": "LOX IMVI", "result": "−0.37"}, {"measurement": "GI50", "setting": "SK-MEL-5; Homo sapiens", "result": 0.372, "unit": "µM"}, {"measurement": "Difference (GI50 desmethyl vs Bryo-1)", "setting": "SK-MEL-5", "result": "−0.73"}, {"measurement": "GI50", "setting": "UACC-62; Homo sapiens", "result": 7.76, "unit": "µM"}, {"measurement": "Difference (GI50 desmethyl vs Bryo-1)", "setting": "UACC-62", "result": 0.19}, {"measurement": "GI50", "setting": "IGROVI; Homo sapiens", "result": 13.2, "unit": "µM"}, {"measurement": "Difference (GI50 desmethyl vs Bryo-1)", "setting": "IGROVI", "result": 0.42}, {"measurement": "GI50", "setting": "OVCAR-4; Homo sapiens", "result": 7.08, "unit": "µM"}, {"measurement": "Difference (GI50 desmethyl vs Bryo-1)", "setting": "OVCAR-4", "result": 0.35}, {"measurement": "GI50", "setting": "OVCAR-5; Homo sapiens", "result": 5.25, "unit": "µM"}, {"measurement": "Difference (GI50 desmethyl vs Bryo-1)", "setting": "OVCAR-5", "result": "−0.28"}, {"measurement": "GI50", "setting": "OVCAR-8; Homo sapiens", "result": 17, "unit": "µM"}, {"measurement": "Difference (GI50 desmethyl vs Bryo-1)", "setting": "OVCAR-8", "result": 0.33}, {"measurement": "Difference (GI50 desmethyl vs Bryo-1)", "setting": "786-0", "result": "−0.26"}, {"measurement": "GI50", "setting": "786-0; Homo sapiens", "result": 3.47, "unit": "µM"}, {"measurement": "Difference (GI50 desmethyl vs Bryo-1)", "setting": "A498", "result": "−1.38"}, {"measurement": "GI50", "setting": "A498; Homo sapiens", "result": 0.417, "unit": "µM"}, {"measurement": "GI50", "setting": "SN12C; Homo sapiens", "result": 2.57, "unit": "µM"}, {"measurement": "Difference (GI50 desmethyl vs Bryo-1)", "setting": "SN12C", "result": "−0.49"}, {"measurement": "Difference (GI50 desmethyl vs Bryo-1)", "setting": "MDA-MB-231/ATCC", "result": "−0.49"}, {"measurement": "GI50", "setting": "MDA-MB-231/ATCC; Homo sapiens", "result": 2.04, "unit": "µM"}, {"measurement": "Difference (GI50 desmethyl vs Bryo-1)", "setting": "BT-549", "result": 0.39}, {"measurement": "GI50", "setting": "BT-549; Homo sapiens", "result": 19.5, "unit": "µM"}, {"measurement": "Difference (GI50 desmethyl vs Bryo-1)", "setting": "HS 578T", "result": 0.02}, {"measurement": "GI50", "setting": "HS 578T; Homo sapiens", "result": 6.61, "unit": "µM"}]}
